Measured values: paper PMC2409929 (British Journal of Cancer, 2004)
Marks after values point to notes of the source that are not given here.

System: patients with metastatic colorectal cancer
Assay: Toxicity graded by NCI-CTC in the phase II trial
Assay type: in vivo, human
Details: for Anaemia, Grade 3–4, %Patients / Anaemia, all grades, %Patients / Leukocytopenia, Grade 3–4, %Patients / Leukocytopenia, all grades, %Patients / Neutropenia, Grade 3–4, %Patients / Neutropenia, all grades, %Patients / Thrombocytopenia, Grade 3–4, %Patients / Thrombocytopenia, all grades, %Patients: worst grade during study
Experimental: Haematology was checked weekly.
Otherwise, they were analysed by nonparametric methods. […] All tests for significance were two-tailed.

[1] = arm A (350 mg m^−2 90-min i.v. q3 weeks)
[2] = arm A (350 mg m^−2 90-min i.v. q3 weeks), possibly or probably related
[3] = arm B (125 mg m^−2 90-min i.v. weekly × 4 q6 weeks)
[4] = arm B (125 mg m^−2 90-min i.v. weekly × 4 q6 weeks), possibly or probably related
[5] = arm C (250 mg m^−2 90-min i.v. q2 weeks)
[6] = arm C (250 mg m^−2 90-min i.v. q2 weeks), possibly or probably related
[7] = arm D (10 mg m^−2 day^−1 14-day continuous infusion q3 weeks)
[8] = arm D (10 mg m^−2 day^−1 14-day continuous infusion q3 weeks), possibly or probably related

## CCc1c2c(nc3ccc(OC(=O)N4CCC(N5CCCCC5)CC4)cc13)-c1cc3c(c(=O)n1C2)COC(=O)[C@]3(O)CC [irinotecan]
[1]
  Anaemia, Grade 3–4, %Cycles: 1%
  Anaemia, all grades, %Cycles: 92%
  Episodes of grade 3–4 neutropenia with duration <8 days: 53%
  Febrile neutropenia, %Patients: 75%
  Leukocytopenia, Grade 3–4, %Cycles: 15%
  Leukocytopenia, all grades, %Cycles: 70%
  Neutropenia, Grade 3–4, %Cycles: 21%
  Neutropenia, all grades, %Cycles: 65%
  Neutropenic infection, %Cycles: 1%
  Neutropenic infection, %Patients: 2%
  Number of patients with at least one grade 3–4 adverse event possibly or probably related to irinotecan: 12
  Patients with at least one grade 3–4 adverse event possibly or probably related to irinotecan, %: 29%
  Thrombocytopenia, Grade 3–4, %Cycles: 0/0%
  Thrombocytopenia, all grades, %Cycles: 14%
  Anaemia, Grade 3–4, %Patients: 2%
  Anaemia, all grades, %Patients: 98%
  Leukocytopenia, Grade 3–4, %Patients: 20%
  Leukocytopenia, all grades, %Patients: 73%
  Neutropenia, Grade 3–4, %Patients: 34%
  Neutropenia, all grades, %Patients: 73%
  Thrombocytopenia, Grade 3–4, %Patients: 0/0%
  Thrombocytopenia, all grades, %Patients: 24%
[2]
  Alopecia, all grades, % of patients: 71 ^b %
  Anorexia, all grades, % of patients: 12%
  Cholinergic syndrome, all grades, % of patients: 68 ^a %
  Diarrhoea, Grade 3–4, % of patients: 10%
  Diarrhoea, all grades, % of patients: 88%
  Fatigue, Grade 3–4, % of patients: 7%
  Fatigue, all grades, % of patients: 51%
  Fever in absence of infection, Grade 3–4, % of patients: 2%
  Fever in absence of infection, all grades, % of patients: 12%
  Gastrointestinal pain, Grade 3–4, % of patients: 2%
  Gastrointestinal pain, all grades, % of patients: 17%
  Infection, Grade 3–4, % of patients: 2%
  Infection, all grades, % of patients: 7%
  Nausea, Grade 3–4, % of patients: 15%
  Nausea, all grades, % of patients: 73%
  Vomiting, Grade 3–4, % of patients: 10%
  Vomiting, all grades, % of patients: 54%
Arm A (350 mg m^−2 90-min i.v. q3 weeks), range 6–14
  Median time to recovery from grade 3–4 neutropenia: 7 days
Arm A (350 mg m^−2 90-min i.v. q3 weeks), range 6–17
  Median number of days to grade 3–4 nadir (neutropenia): 9 days
[3]
  Anaemia, Grade 3–4, %Cycles: 1%
  Anaemia, all grades, %Cycles: 87%
  Episodes of grade 3–4 neutropenia with duration <8 days: 77%
  Febrile neutropenia, %Cycles: 2%
  Febrile neutropenia, %Patients: 5%
  Leukocytopenia, Grade 3–4, %Cycles: 6%
  Leukocytopenia, all grades, %Cycles: 53%
  Neutropenia, Grade 3–4, %Cycles: 12%
  Neutropenia, all grades, %Cycles: 50%
  Number of patients with at least one grade 3–4 adverse event possibly or probably related to irinotecan: 11
  Patients with at least one grade 3–4 adverse event possibly or probably related to irinotecan, %: 30%
  Thrombocytopenia, Grade 3–4, %Cycles: 0/0%
  Thrombocytopenia, all grades, %Cycles: 6%
  Anaemia, Grade 3–4, %Patients: 3%
  Anaemia, all grades, %Patients: 92%
  Leukocytopenia, Grade 3–4, %Patients: 14%
  Leukocytopenia, all grades, %Patients: 68%
  Neutropenia, Grade 3–4, %Patients: 25%
  Neutropenia, all grades, %Patients: 61%
  Thrombocytopenia, Grade 3–4, %Patients: 0/0%
  Thrombocytopenia, all grades, %Patients: 11%
[4]
  Alopecia, all grades, % of patients: 43%
  Anorexia, all grades, % of patients: 14%
  Cholinergic syndrome, all grades, % of patients: 41 ^a %
  Diarrhoea, Grade 3–4, % of patients: 24%
  Diarrhoea, all grades, % of patients: 76%
  Fatigue, Grade 3–4, % of patients: 3%
  Fatigue, all grades, % of patients: 38%
  Fever in absence of infection, all grades, % of patients: 19%
  Gastrointestinal pain, Grade 3–4, % of patients: 3%
  Gastrointestinal pain, all grades, % of patients: 16%
  Infection, Grade 3–4, % of patients: 5%
  Infection, all grades, % of patients: 11%
  Nausea, Grade 3–4, % of patients: 5%
  Nausea, all grades, % of patients: 73%
  Vomiting, Grade 3–4, % of patients: 3%
  Vomiting, all grades, % of patients: 57%
Arm B (125 mg m^−2 90-min i.v. weekly × 4 q6 weeks), range 2–15
  Median time to recovery from grade 3–4 neutropenia: 7 days
Arm B (125 mg m^−2 90-min i.v. weekly × 4 q6 weeks), range 4–13
  Median number of days to grade 3–4 nadir (neutropenia): 7 days
[5]
  Anaemia, Grade 3–4, %Cycles: 4/4%
  Anaemia, all grades, %Cycles: 90%
  Discontinuation due to toxicity, main reason diarrhoea: 7%
  Episodes of grade 3–4 neutropenia with duration <8 days: 84%
  Febrile neutropenia, %Cycles: 1%
  Febrile neutropenia, %Patients: 7%
  Leukocytopenia, Grade 3–4, %Cycles: 6%
  Leukocytopenia, all grades, %Cycles: 56%
  Neutropenia, Grade 3–4, %Cycles: 20%
  Neutropenia, all grades, %Cycles: 57%
  Neutropenic infection, %Cycles: 1%
  Neutropenic infection, %Patients: 2%
  Number of patients with at least one grade 3–4 adverse event possibly or probably related to irinotecan: 14
  Patients who discontinued treatment due to toxicity (from the study drug): 11%
  Patients with at least one grade 3–4 adverse event possibly or probably related to irinotecan, %: 30%
  Thrombocytopenia, Grade 3–4, %Cycles: 0/0%
  Thrombocytopenia, all grades, %Cycles: 6%
  Anaemia, Grade 3–4, %Patients: 4/4%
  Anaemia, all grades, %Patients: 91%
  Leukocytopenia, Grade 3–4, %Patients: 15%
  Leukocytopenia, all grades, %Patients: 70%
  Neutropenia, Grade 3–4, %Patients: 28%
  Neutropenia, all grades, %Patients: 65%
  Thrombocytopenia, Grade 3–4, %Patients: 0/0%
  Thrombocytopenia, all grades, %Patients: 15%
[6]
  Alopecia, all grades, % of patients: 67 ^b %
  Anorexia, all grades, % of patients: 17%
  Cholinergic syndrome, Grade 3–4, % of patients: 2%
  Cholinergic syndrome, all grades, % of patients: 61 ^a %
  Diarrhoea, Grade 3–4, % of patients: 13%
  Diarrhoea, all grades, % of patients: 74%
  Fatigue, Grade 3–4, % of patients: 4%
  Fatigue, all grades, % of patients: 61%
  Fever in absence of infection, Grade 3–4, % of patients: 4%
  Fever in absence of infection, all grades, % of patients: 15%
  Gastrointestinal pain, Grade 3–4, % of patients: 2%
  Gastrointestinal pain, all grades, % of patients: 17%
  Infection, all grades, % of patients: 11%
  Nausea, Grade 3–4, % of patients: 9%
  Nausea, all grades, % of patients: 65%
  Vomiting, Grade 3–4, % of patients: 9%
  Vomiting, all grades, % of patients: 50%
Arm C (250 mg m^−2 90-min i.v. q2 weeks), range 1–12
  Median time to recovery from grade 3–4 neutropenia: 7 days
Arm C (250 mg m^−2 90-min i.v. q2 weeks), range 6–17
  Median number of days to grade 3–4 nadir (neutropenia): 7 days
[7]
  Anaemia, Grade 3–4, %Cycles: 0/0%
  Anaemia, all grades, %Cycles: 83%
  Discontinuation due to toxicity, main reason diarrhoea: 14%
  Discontinuation due to toxicity, main reason vomiting: 14%
  Episodes of grade 3–4 neutropenia with duration <8 days: 25%
  Leukocytopenia, Grade 3–4, %Cycles: 3%
  Leukocytopenia, all grades, %Cycles: 24%
  Neutropenia, Grade 3–4, %Cycles: 5%
  Neutropenia, all grades, %Cycles: 15%
  Neutropenic infection, %Cycles: 1%
  Neutropenic infection, %Patients: 2%
  Number of patients with at least one grade 3–4 adverse event possibly or probably related to irinotecan: 22
  Patients who discontinued treatment due to toxicity (from the study drug): 21%
  Patients with at least one grade 3–4 adverse event possibly or probably related to irinotecan, %: 50%
  Thrombocytopenia, Grade 3–4, %Cycles: 3%
  Thrombocytopenia, all grades, %Cycles: 8%
  Anaemia, Grade 3–4, %Patients: 0/0%
  Anaemia, all grades, %Patients: 91%
  Leukocytopenia, Grade 3–4, %Patients: 5%
  Leukocytopenia, all grades, %Patients: 30%
  Neutropenia, Grade 3–4, %Patients: 9%
  Neutropenia, all grades, %Patients: 23%
  Thrombocytopenia, Grade 3–4, %Patients: 5%
  Thrombocytopenia, all grades, %Patients: 9%
[8]
  Alopecia, all grades, % of patients: 34 ^b %
  Anorexia, Grade 3–4, % of patients: 5%
  Anorexia, all grades, % of patients: 34%
  Cholinergic syndrome, all grades, % of patients: 7 ^a %
  Diarrhoea, Grade 3–4, % of patients: 25%
  Diarrhoea, all grades, % of patients: 77%
  Fatigue, Grade 3–4, % of patients: 7%
  Fatigue, all grades, % of patients: 52%
  Fever in absence of infection, all grades, % of patients: 16%
  Gastrointestinal pain, Grade 3–4, % of patients: 2%
  Gastrointestinal pain, all grades, % of patients: 23%
  Infection, Grade 3–4, % of patients: 7%
  Infection, all grades, % of patients: 11%
  Nausea, Grade 3–4, % of patients: 23%
  Nausea, all grades, % of patients: 80%
  Vomiting, Grade 3–4, % of patients: 16%
  Vomiting, all grades, % of patients: 59%
Arm D (10 mg m^−2 day^−1 14-day continuous infusion q3 weeks), range 4–4
  Median time to recovery from grade 3–4 neutropenia: 4 days
Arm D (10 mg m^−2 day^−1 14-day continuous infusion q3 weeks), range 14–19
  Median number of days to grade 3–4 nadir (neutropenia): 16 days
